# Reference: patent US7635722B1, “Chemical induced intracellular hyperthermia” (priority 1998, dated 2009)
# Read-outs that look alike come from different tables or passages of the source.
# Key:
# HIV = experiment: DNP hyperthermia, HIV disease (Example 2); type: in vivo, human
# Method: (§1) Pretreatment protocol: all medications were stopped 2 weeks prior to treatment. The patient refused taking diazepam, placement of a Foley catheter and oxygen face mask. They dressed themself into a dry cold water immersion suit (Stearns, ISS-590I, Universal Adult) designed to prevent heat loss and modified for easy placement of physiologic monitors. Equipment for measurement of heart rate, temperature, carbon dioxide production and Kcal of heat produced were conducted as outlined in Example 1. An oral breathing tube was used to measure V02 from room air. Urine output was measured when the patient voluntarily urinated through a “Texas” catheter (superficial condom tightly fitted around the head of the penis with tubing connected to urine collection bag). The patient was informed that hyperthermia would be administered as tolerated by their stamina and monitored clinical parameters, not to exceed 5 hours, on a daily or every other day basis, for a total of 5 sessions.
# Treatment procedure: Baseline reading for 5 minutes established an average V02 of 300 cc/min. An initial dose of 2 mg/kg of DNP was administered over a 2 minute period. V02 increased and stabilized at 15 minutes at 340-380 cc/min. An additional 2 mg/kg DNP infusion was given, the V02 increased and stabilized at 610-630 cc/min. […] Norepinephrine bitartrate (Levophed) was given IV drip at a dose of 1 microgram/min. and adjusted to maintain blood pressure at 130/80. Approximately 1 minute after initiating the vasopressor, heart rate increased from 90 to 100 and V02 to 0.85 liters/min. […] V02 was maintained at 1.0 liters/min. by lowering or increasing the dose of norepinephrine. An additional infusion of 1 mg/kg DNP was given at hour 4 to correct a dropping V02. On occasions when the core temperature increased above 41.6° C., a lower extremity was exposed for evaporative heat loss. […] The protocol was repeated consecutively for 5 days without the additional use of vasopressors.
# [1] = type: in vivo, human
# Method: Placement of physiologic monitoring sensors, intravenous fluids, supplemental oxygen (4 l/min) and optional oral diazepam sedation (5-10 mg) is initiated prior to treatment. Patients receive 0.85 to 1.0 liter of intravenous (IV) 5% dextrose in 0.25 normal saline per hour alternated with 5% dextrose in 0.5 normal saline plus 7.5 to 10 meq of KCl per liter to insure a urinary output of no less than 1 ml/kg/hr. […] Two hours after treatment and 48 hours post-treatment, serum chemistries and hematologic profiles are repeated. A typical patient flow chart is depicted in FIG. 14.
# Pretreatment protocol: the patient was given 10 mg diazepam by mouth and dressed into a modified wet suit. The wet suit was cut lengthwise at the arms and legs. Velcro strappings were attached at the cuttings for closure, rapid removal or exposure of the limb(s). After placement of monitoring sensors, they were started on IV fluids of 5% dextrose, 0.5 normal saline with 7 meq K^+, infused at an initial rate of 12 cc/kg/hr. Evaporative heat loss from the head was minimized by a plastic shower cap and towels. A 401AC temperature probe (YSI Incorporated, Yellow Springs, Ohio) was inserted 11 cm. into the rectum. […] A TEEM 100 Metabolic Analysis System (AeroSport Inc., Ann Arbor, Mich.), with a modified face mask and oxygen delivery system (38-40% 02 saturation) for patient comfort and increased accuracy, was attached to the patient. Oxygen consumption (V02), carbon dioxide production (VC02), expired air volume (VE), heart rate (HR), and Kcal of heat produced were measured in 20 second intervals and extrapolated to minute or hourly rates.
# as §1
# Pretreatment protocol: the evening prior treatment the patient was instructed not to eat and dress in cotton undergarments. Approximately 4 hours prior to treatment 2 mg alprazolam was administered by mouth. The patient dressed themself into a dry cold water immersion suit (Stearns, previously described) with headgear. Monitoring sensors, including EKG display, IV fluids and Foley catheter were attached and the suit was zipped closed. The patient opted for oxygen supplementation. The modified face mask was connected to the TEEM 100 metabolic Analysis System for V02 measurements. Data was recorded as previously described.
# Pretreatment protocol: the patient was transfused with three units of packed red blood cells. A Foley catheter was inserted on each day of treatment. They were covered in a water soaked blanket containing a polyethylene lining. A shower cap with towels was used to prevent heat loss from the head. Intravenous lines were placed into both arms with 19 gauge intracaths. EKG, heart rate, rectal thermistor, and V02 monitors were attached. Oxygen supplemented facemask and equipment was attached and data monitored as previously described under Example 1.
# Pretreatment protocol: the patient was transfused with 2 units of packed red blood cells 48 hours prior to undergoing treatment. Intravenous fluids (Lactated Ringer's solution) were administered at a rate of 100 cc/hour. […]
# [2] = Example 3, peak after second dose of 2.0 mg/kg DNP
# [3] = Example 3, stable plateau after additional 1.0 mg/kg DNP
# [4] = Example 4, DNP 1 mg/kg + 3 x 0.5 mg/kg after mephenteramine
smiles,measurement,setting,value
"O=[N+]([O-])c1ccc(O)c([N+](=O)[O-])c1 [DNP, 2,4-dinitrophenol]",lymphadenopathy,HIV; 2 weeks post-treatment,resolved
same,HIV RNA,"HIV; 4, 6 and 12 weeks post-treatment",non-detectable
same,CD4+ T cell lymphocyte counts,"HIV; by week 4, stable at week 6 and 12, pretreatment 250/mm^3",380-420 cells/mm^3
same,viral load,"HIV; immediately after treatment day 5, pretreatment 400,000 copies/ml","50,000 HIV-RNA copies/ml"
same,rectal body temperature,"[1]; Example 1, DNP 1 + 3 mg/kg IV plus glucagon, maintained about 1 hour",40 °C
same,post-treatment toxicity,"[1]; Example 1, DNP with glucagon",No immediate or delayed post-treatment toxicity
same,V02 above baseline,"[1]; Example 1, stabilized after initial 1 mg/kg DNP IV",40%
same,V02,"[1]; Example 2, 15 minutes after initial 2 mg/kg DNP, baseline 300 cc/min",340-380 cc/min
same,V02,"[1]; Example 2, after additional 2 mg/kg DNP infusion",610-630 cc/min
same,blood pressure,"[1]; Example 2, gradual fall noted at 90 minutes",100/60
same,repeat blood work,"[1]; Example 2, on days of treatment","no significant hematologic, electrolyte, liver or kidney changes from baseline"
same,tolerability of the procedure,"[1]; Example 2, period of 7 hours",without any untoward effects
same,body core temperature,"[1]; Example 2, within 60 minutes, DNP 2 + 2 mg/kg",39.4 °C
same,tolerability of the procedure,[1]; Example 3,experienced no problems during the procedure but was noticeably fatigued by hour 3
same,oral temperature,"[1]; Example 3, 6.5 to 7 hours after treatment, with chills and malaise",38.7 degrees centigrade
same,V02 per kg,"[1]; Example 3, after 1 mg/kg DNP, baseline 3.7",5.3 cc/kg/min
same,V02,"[1]; Example 3, after 1 mg/kg DNP, baseline 220 cc/min",250 cc/min
same,V02,[1]; [2],400 cc/min
same,V02 per kg,[1]; [2],8.8 cc 02/kg/min
same,V02,[1]; [3],600 cc/min
same,V02 per kg,[1]; [3],10.8 cc/kg/min
same,V02,[1]; [4],780-820 cc/min
same,"core temperature, maximum",[1]; [4],41.4 °C
same,plateau temperature,"[1]; Example 4, maintained 2 hours and 30 minutes",41.5 °C
same,VO2 uptake above baseline,"[1]; Example 7, 300 mg capsule of DNP orally, three hours before, immediately prior to emission scan",40%
same,VO2 above baseline,"[1]; Example 8, DNP 1 + 2 mg/kg IV",50%
same,blood pressure and cardiac rates,[1]; Example 9,remained within normal limits
same,VO2,"[1]; Example 9, 15 minutes after additional 1 mg/kg DNP",420 cc/minute
same,VO2,"[1]; Example 9, 20 minutes after 2 mg/kg DNP IV, baseline 250 cc/minute",340-360 cc/minute
same,VO2,"[1]; Example 9, 20 minutes after additional 1 mg/kg DNP at hour 3",450-500 cc/minute
same,tolerability of the procedure,"[1]; Example 9, 6 hours",without any adverse effects
same,"rectal probe temperature increase over baseline, maximum","[1]; Example 9, DNP with methylene blue",1.3 °C
same,general toxicity,"[1]; Example 9, at any time during treatment",no evidence of general toxicity
same,VO2,"[1]; Example 9, declined by hour 3",360-380 cc/minute
same,fatigue,[1]; Example 10,notably fatigued at hour 5
same,sweating,[1]; Example 10,sweat profusely
same,VO2,"[1]; Example 10, 20 minutes after 1 mg/kg DNP, baseline 160 cc/min, interferon-alpha 6 hours before",approximately 210 cc/min
same,VO2,"[1]; Example 10, 20 minutes after additional 2 mg/kg DNP",420 cc/min
same,VO2,"[1]; Example 10, 20 minutes after additional 2.0 mg/kg DNP",360 cc/min
same,VO2,"[1]; Example 10, declined two hours after last dose",280 cc/min
same,rectal temperature above normal baseline,"[1]; Example 10, no efforts to prevent body heat loss",≤ 1.3 °C
same,VO2,"[1]; Example 10, peak 20 minutes after second dose of 1 mg/kg DNP",250 cc/min
